Laboratory results taken from patent US20230398130A1, “METHODS AND COMPOSITIONS FOR DIFFERENTIATING STEM CELLS” (Massachusetts Institute of Technology, priority 2020, published 2023).

How the values were obtained:
ISC-enriched organoids [1] = assay: Primary screen, 384-well 2.5-D organoid differentiation (ENR+CD, 6 days): basal lysozyme secretion (LYZ.NS); assay type: cell-based, murine; details: for Dose.FC.LYZ.NS (log 2 fold change, basal lysozyme secretion): vs plate median; for Dose.FC.LYZ.NS / Z.LYZ.NS / SSMD.LYZ.NS: primary screen; for Dose.FC.LYZ.NS: FC vs plate median; for Z.LYZ.NS: standard z score; for SSMD.LYZ.NS: strictly standardized mean difference
Description: (§1) High-throughput screening.

ISC-enriched organoids [2] = assay: Primary screen, 384-well 2.5-D organoid differentiation (ENR+CD, 6 days): carbachol-induced lysozyme secretion (LYZ.S); assay type: cell-based, murine; details: for Dose.FC.LYZ.S (log 2 fold change, carbachol-induced lysozyme secretion): vs plate median; for Dose.FC.LYZ.S / Z.LYZ.S / SSMD.LYZ.S: primary screen; for Dose.FC.LYZ.S: FC vs plate median; for Z.LYZ.S: standard z score; for SSMD.LYZ.S: strictly standardized mean difference
Description: as §1

ISC-enriched organoids [3] = assay: Primary screen, 384-well 2.5-D organoid differentiation (ENR+CD, 6 days, Target Selective Inhibitor Library, vs whole-plate median): ATP (CellTiter-Glo 3D, CTG); details: for Dose.FC.CTG (log 2 fold change, ATP): vs plate median; for Dose.FC.CTG / Z.CTG / SSMD.CTG: primary screen; for Dose.FC.CTG: FC vs plate median; for Z.CTG: standard z score; for SSMD.CTG: strictly standardized mean difference
[4] = 1st of the 4 dose lines of the treatment (dose not given)
[5] = 2nd of the 4 dose lines of the treatment (dose not given)
[6] = 3rd of the 4 dose lines of the treatment (dose not given)
[7] = 4th of the 4 dose lines of the treatment (dose not given)

CC(/C=C/C(=O)NO)=C\[C@@H](C)C(=O)c1ccc(N(C)C)cc1 [Trichostatin A (TSA)]
Z.LYZ.NS (standard z score) (ISC-enriched organoids [1]; dose 0.08 uM): −0.554
Dose.FC.LYZ.NS (log 2 fold change, basal lysozyme secretion) (ISC-enriched organoids [1]; dose 0.08 uM): −0.064
Z.LYZ.NS (standard z score) (ISC-enriched organoids [1]; dose 0.40 uM): −1.697
Dose.FC.LYZ.NS (log 2 fold change, basal lysozyme secretion) (ISC-enriched organoids [1]; dose 0.40 uM): −0.195
Z.LYZ.NS (standard z score) (ISC-enriched organoids [1]; dose 2.00 uM): −1.334
Dose.FC.LYZ.NS (log 2 fold change, basal lysozyme secretion) (ISC-enriched organoids [1]; dose 2.00 uM): −0.153
Z.LYZ.NS (standard z score) (ISC-enriched organoids [1]; dose 10.00 uM): −1.298
Dose.FC.LYZ.NS (log 2 fold change, basal lysozyme secretion) (ISC-enriched organoids [1]; dose 10.00 uM): −0.149
Dose.FC.LYZ.S (log 2 fold change, carbachol-induced lysozyme secretion) (ISC-enriched organoids [2]; dose 0.08 uM): −0.124
Dose.FC.LYZ.S (log 2 fold change, carbachol-induced lysozyme secretion) (ISC-enriched organoids [2]; dose 0.40 uM): −0.254
Dose.FC.LYZ.S (log 2 fold change, carbachol-induced lysozyme secretion) (ISC-enriched organoids [2]; dose 2.00 uM): −0.210
Dose.FC.LYZ.S (log 2 fold change, carbachol-induced lysozyme secretion) (ISC-enriched organoids [2]; dose 10.00 uM): −0.202
Z.CTG (standard z score) (ISC-enriched organoids [3]; dose 0.08 uM): 0.457
Dose.FC.CTG (log 2 fold change, ATP) (ISC-enriched organoids [3]; dose 0.08 uM): 0.191
Z.CTG (standard z score) (ISC-enriched organoids [3]; dose 0.40 uM): −1.913
Dose.FC.CTG (log 2 fold change, ATP) (ISC-enriched organoids [3]; dose 0.40 uM): −0.801
Z.CTG (standard z score) (ISC-enriched organoids [3]; dose 2.00 uM): −2.159
Dose.FC.CTG (log 2 fold change, ATP) (ISC-enriched organoids [3]; dose 2.00 uM): −0.904
Z.CTG (standard z score) (ISC-enriched organoids [3]; dose 10.00 uM): −1.974
Dose.FC.CTG (log 2 fold change, ATP) (ISC-enriched organoids [3]; dose 10.00 uM): −0.826

Nc1cccc2c1CN(C1CCC(=O)NC1=O)C2=O (stereo not shown) [Lenalidomide (CC-5013)]
Dose.FC.LYZ.NS (ISC-enriched organoids [1]; Dose 0.08 uM): 0.147 log 2 fold change
Z.LYZ.NS (ISC-enriched organoids [1]; Dose 0.08 uM): 1.283
Dose.FC.LYZ.NS (ISC-enriched organoids [1]; Dose 0.40 uM): 0.099 log 2 fold change
Z.LYZ.NS (ISC-enriched organoids [1]; Dose 0.40 uM): 0.863
Dose.FC.LYZ.NS (ISC-enriched organoids [1]; Dose 2.00 uM): 0.071 log 2 fold change
Z.LYZ.NS (ISC-enriched organoids [1]; Dose 2.00 uM): 0.615
Dose.FC.LYZ.NS (ISC-enriched organoids [1]; Dose 10.00 uM): −0.041 log 2 fold change
Z.LYZ.NS (ISC-enriched organoids [1]; Dose 10.00 uM): −0.360
SSMD.LYZ.NS (ISC-enriched organoids [1]; [4]): 1.215
SSMD.LYZ.NS (ISC-enriched organoids [1]; [5]): 0.674
SSMD.LYZ.NS (ISC-enriched organoids [1]; [6]): 0.472
SSMD.LYZ.NS (ISC-enriched organoids [1]; [7]): −0.318
Dose.FC.LYZ.S (ISC-enriched organoids [2]; Dose 0.08 uM): 0.099 log 2 fold change
Dose.FC.LYZ.S (ISC-enriched organoids [2]; Dose 0.40 uM): 0.176 log 2 fold change
Dose.FC.LYZ.S (ISC-enriched organoids [2]; Dose 2.00 uM): 0.025 log 2 fold change
Dose.FC.LYZ.S (ISC-enriched organoids [2]; Dose 10.00 uM): −0.045 log 2 fold change
Z.LYZ.S (ISC-enriched organoids [2]; [4]): 0.639
Z.LYZ.S (ISC-enriched organoids [2]; [5]): 1.137
Z.LYZ.S (ISC-enriched organoids [2]; [6]): 0.162
Z.LYZ.S (ISC-enriched organoids [2]; [7]): −0.290
SSMD.LYZ.S (ISC-enriched organoids [2]; [4]): 0.593
SSMD.LYZ.S (ISC-enriched organoids [2]; [5]): 0.873
SSMD.LYZ.S (ISC-enriched organoids [2]; [6]): 0.193
SSMD.LYZ.S (ISC-enriched organoids [2]; [7]): −0.298
Dose.FC.CTG (ISC-enriched organoids [3]; Dose 0.08 uM): 0.046 log 2 fold change
Z.CTG (ISC-enriched organoids [3]; Dose 0.08 uM): 0.110
Dose.FC.CTG (ISC-enriched organoids [3]; Dose 0.40 uM): −0.016 log 2 fold change
Z.CTG (ISC-enriched organoids [3]; Dose 0.40 uM): −0.037
Dose.FC.CTG (ISC-enriched organoids [3]; Dose 2.00 uM): −0.250 log 2 fold change
Z.CTG (ISC-enriched organoids [3]; Dose 2.00 uM): −0.596
Dose.FC.CTG (ISC-enriched organoids [3]; Dose 10.00 uM): −0.316 log 2 fold change
Z.CTG (ISC-enriched organoids [3]; Dose 10.00 uM): −0.754
SSMD.CTG (ISC-enriched organoids [3]; [4]): 0.169
SSMD.CTG (ISC-enriched organoids [3]; [5]): −0.049
SSMD.CTG (ISC-enriched organoids [3]; [6]): −0.710
SSMD.CTG (ISC-enriched organoids [3]; [7]): −0.802

COc1cc2c(Nc3ccc(NC(=O)c4ccccc4)cc3)ncnc2cc1OCCCN1CCOCC1 [ZM 447439]
Z.LYZ.NS (standard z score) (ISC-enriched organoids [1]; dose 0.08 uM): 0.896
Dose.FC.LYZ.NS (log 2 fold change, basal lysozyme secretion) (ISC-enriched organoids [1]; dose 0.08 uM): 0.103
Z.LYZ.NS (standard z score) (ISC-enriched organoids [1]; dose 0.40 uM): 0.932
Dose.FC.LYZ.NS (log 2 fold change, basal lysozyme secretion) (ISC-enriched organoids [1]; dose 0.40 uM): 0.107
Z.LYZ.NS (standard z score) (ISC-enriched organoids [1]; dose 2.00 uM): 0.456
Dose.FC.LYZ.NS (log 2 fold change, basal lysozyme secretion) (ISC-enriched organoids [1]; dose 2.00 uM): 0.052
Z.LYZ.NS (standard z score) (ISC-enriched organoids [1]; dose 10.00 uM): −0.695
Dose.FC.LYZ.NS (log 2 fold change, basal lysozyme secretion) (ISC-enriched organoids [1]; dose 10.00 uM): −0.080
Dose.FC.LYZ.S (log 2 fold change, carbachol-induced lysozyme secretion) (ISC-enriched organoids [2]; dose 0.08 uM): 0.171
Dose.FC.LYZ.S (log 2 fold change, carbachol-induced lysozyme secretion) (ISC-enriched organoids [2]; dose 0.40 uM): 0.108
Dose.FC.LYZ.S (log 2 fold change, carbachol-induced lysozyme secretion) (ISC-enriched organoids [2]; dose 2.00 uM): 0.074
Dose.FC.LYZ.S (log 2 fold change, carbachol-induced lysozyme secretion) (ISC-enriched organoids [2]; dose 10.00 uM): −0.132
Z.CTG (standard z score) (ISC-enriched organoids [3]; dose 0.08 uM): 1.222
Dose.FC.CTG (log 2 fold change, ATP) (ISC-enriched organoids [3]; dose 0.08 uM): 0.512
Z.CTG (standard z score) (ISC-enriched organoids [3]; dose 0.40 uM): 0.725
Dose.FC.CTG (log 2 fold change, ATP) (ISC-enriched organoids [3]; dose 0.40 uM): 0.304
Z.CTG (standard z score) (ISC-enriched organoids [3]; dose 2.00 uM): 0.552
Dose.FC.CTG (log 2 fold change, ATP) (ISC-enriched organoids [3]; dose 2.00 uM): 0.231
Z.CTG (standard z score) (ISC-enriched organoids [3]; dose 10.00 uM): −0.574
Dose.FC.CTG (log 2 fold change, ATP) (ISC-enriched organoids [3]; dose 10.00 uM): −0.240

Oc1ccc2ccccc2c1SSc1c(O)ccc2ccccc12 [IPA-3]
Dose.FC.LYZ.NS (ISC-enriched organoids [1]; Dose 0.08 uM): 0.004 log 2 fold change
Z.LYZ.NS (ISC-enriched organoids [1]; Dose 0.08 uM): 0.031
Dose.FC.LYZ.NS (ISC-enriched organoids [1]; Dose 0.40 uM): 0.003 log 2 fold change
Z.LYZ.NS (ISC-enriched organoids [1]; Dose 0.40 uM): 0.028
Dose.FC.LYZ.NS (ISC-enriched organoids [1]; Dose 2.00 uM): −0.001 log 2 fold change
Z.LYZ.NS (ISC-enriched organoids [1]; Dose 2.00 uM): −0.010
Dose.FC.LYZ.NS (ISC-enriched organoids [1]; Dose 10.00 uM): −0.021 log 2 fold change
Z.LYZ.NS (ISC-enriched organoids [1]; Dose 10.00 uM): −0.186
SSMD.LYZ.NS (ISC-enriched organoids [1]; [4]): 0.027
SSMD.LYZ.NS (ISC-enriched organoids [1]; [5]): 0.026
SSMD.LYZ.NS (ISC-enriched organoids [1]; [6]): −0.008
SSMD.LYZ.NS (ISC-enriched organoids [1]; [7]): −0.175
Dose.FC.LYZ.S (ISC-enriched organoids [2]; Dose 0.08 uM): 0.064 log 2 fold change
Dose.FC.LYZ.S (ISC-enriched organoids [2]; Dose 0.40 uM): −0.031 log 2 fold change
Dose.FC.LYZ.S (ISC-enriched organoids [2]; Dose 2.00 uM): 0.067 log 2 fold change
Dose.FC.LYZ.S (ISC-enriched organoids [2]; Dose 10.00 uM): −0.054 log 2 fold change
Z.LYZ.S (ISC-enriched organoids [2]; [4]): 0.413
Z.LYZ.S (ISC-enriched organoids [2]; [5]): −0.202
Z.LYZ.S (ISC-enriched organoids [2]; [6]): 0.431
Z.LYZ.S (ISC-enriched organoids [2]; [7]): −0.347
SSMD.LYZ.S (ISC-enriched organoids [2]; [4]): 0.356
SSMD.LYZ.S (ISC-enriched organoids [2]; [5]): −0.184
SSMD.LYZ.S (ISC-enriched organoids [2]; [6]): 0.324
SSMD.LYZ.S (ISC-enriched organoids [2]; [7]): −0.305
Dose.FC.CTG (ISC-enriched organoids [3]; Dose 0.08 uM): 0.219 log 2 fold change
Z.CTG (ISC-enriched organoids [3]; Dose 0.08 uM): 0.524
Dose.FC.CTG (ISC-enriched organoids [3]; Dose 0.40 uM): −0.332 log 2 fold change
Z.CTG (ISC-enriched organoids [3]; Dose 0.40 uM): −0.793
Dose.FC.CTG (ISC-enriched organoids [3]; Dose 2.00 uM): −0.084 log 2 fold change
Z.CTG (ISC-enriched organoids [3]; Dose 2.00 uM): −0.202
Dose.FC.CTG (ISC-enriched organoids [3]; Dose 10.00 uM): −0.054 log 2 fold change
Z.CTG (ISC-enriched organoids [3]; Dose 10.00 uM): −0.128
SSMD.CTG (ISC-enriched organoids [3]; [4]): 0.818
SSMD.CTG (ISC-enriched organoids [3]; [5]): −0.408
SSMD.CTG (ISC-enriched organoids [3]; [6]): −0.316
SSMD.CTG (ISC-enriched organoids [3]; [7]): −0.172
